Test results taken from paper PMC7435819, “Towards the Inhibition of Protein–Protein Interactions (PPIs) in STAT3: Insights into a New Class of Benzothiadiazole Derivatives” (Molecules, 2020).
Read-outs that look alike come from different tables or passages of the source. Where no end group is shown, it is not given here. [ ]: non-standard residue; d: D form. pY = N[C@@H](Cc1ccc(OP(=O)(O)O)cc1)C(=O)O

T1: STAT1 (Homo sapiens, UniProt P42224)
T1 sequence (P42224 1-750): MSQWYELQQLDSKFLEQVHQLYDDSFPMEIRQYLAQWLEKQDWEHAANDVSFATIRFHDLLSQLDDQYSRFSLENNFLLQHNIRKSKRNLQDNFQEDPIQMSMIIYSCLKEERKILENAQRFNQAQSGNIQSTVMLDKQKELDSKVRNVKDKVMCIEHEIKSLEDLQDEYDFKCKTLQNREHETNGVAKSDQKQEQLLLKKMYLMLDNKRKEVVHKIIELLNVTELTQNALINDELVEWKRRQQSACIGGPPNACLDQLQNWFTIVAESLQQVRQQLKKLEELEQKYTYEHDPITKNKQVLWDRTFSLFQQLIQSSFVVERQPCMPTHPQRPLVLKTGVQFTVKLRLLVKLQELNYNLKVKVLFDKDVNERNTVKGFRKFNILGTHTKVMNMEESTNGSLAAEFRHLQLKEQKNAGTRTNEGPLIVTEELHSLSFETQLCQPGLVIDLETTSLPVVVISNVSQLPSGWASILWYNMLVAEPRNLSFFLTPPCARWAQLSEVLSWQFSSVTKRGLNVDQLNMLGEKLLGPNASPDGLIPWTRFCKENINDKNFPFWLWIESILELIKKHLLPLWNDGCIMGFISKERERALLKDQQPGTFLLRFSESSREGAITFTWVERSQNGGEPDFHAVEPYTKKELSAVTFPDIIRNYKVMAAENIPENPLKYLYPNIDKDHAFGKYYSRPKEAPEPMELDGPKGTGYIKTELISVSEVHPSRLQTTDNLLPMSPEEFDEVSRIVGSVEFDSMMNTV


What was measured:
[1] = target: T2, STAT3 (Homo sapiens, UniProt P40763); experiment: AlphaScreen-based competitive binding assay, STAT3 SH2 domain vs FITC-GpYLPQTV; conditions: for IC50: STAT3 wild-type (WT), read-out: STAT3 inhibition: IC50
T2 construct: a truncated form of STAT3 (136-705) was constructed and chromatographically purified; made in house
From the text: (§1) AlphaScreen is an in vitro competitive binding test used to identify compounds that are able to inhibit the binding of proteins containing an SH2 domain to their corresponding phosphopeptides (5-carboxyfluorescein (FITC)-GpYLPQTV for STAT3 and FITC-GpYDKPHVL for STAT1) (Table 2).
(§2) AlphaScreen is a bead-based non-radioactive assay system for the detection of biomolecular interactions in a microtiter plate format. The binding of biological partners brings donor and acceptor beads into close proximity and, as a result, a fluorescent signal between 520 and 620 nm was produced. The AlphaScreen-based assays were performed in a final reaction volume of 25 μL of the assay buffer containing 10 mM HEPES–NaOH (pH 7.4), 50 mM NaCl, 1 mM EDTA (pH 8.0), 0.1% NP-40, and 10 ng/μL bovine serum albumin (BSA) in a 96-well microtiter plate at 25 °C. The pTyr peptide probes used in this study were 5-carboxyfluorescein (FITC)-GpYLPQTV for STAT3 and (FITC)-GpYDKPHVL for STAT1. Plasmid construction and protein expression were performed as previously described; the experimental method is briefly summarized as follows. Considering that the expression of the full-length protein is troublesome, a truncated form of STAT3 (136-705) was constructed and chromatographically purified (AKTA FPLC system; GE Healthcare Bio-Sciences, Piscataway, NJ, USA). The soluble STAT3 fraction was loaded on a HisTrap™ column (GE Healthcare Bio-Sciences) and eluted with an imidazole gradient (50 mM Tris–HCl pH 7.4, 300 mM NaCl, 0.2 mM EDTA, 0.1% (w/v) NP-40, 5 mM β-mercaptoethanol, 10% (v/v) glycerol, and 10–300 mM imidazole). An SDS-PAGE stained with Coomassie Brilliant Blue (CBB) was performed to check the purity of the protein (see Figure S71). Subsequently, the protein was dialyzed (10 mM HEPES-NaOH pH 7.4, 50 mM NaCl, 10 mM β-mercaptoethanol, 0.1 mM EGTA, 0.02% (w/v) NP-40, 0.2 mM phenylmethylsulphonyl fluoride (PMSF), and 10% (v/v) glycerol).
Firstly, 75 nM of each SH2-containing protein were incubated with the test compound (at the following concentrations: 1, 3, 10, and 30 µM) for 15 min. Each protein sample was then incubated for 90 min with 50 nM of its corresponding FITC-pTyr peptide and simultaneously mixed with streptavidin-coated donor beads and anti-FITC acceptor beads before detection at 570 nm using EnVison Xcite (PerkinElmer, Waltham, MA, USA).

[2] = target: T1, STAT1; experiment: AlphaScreen-based competitive binding assay, STAT1 vs FITC-GpYDKPHVL; conditions: read-out: STAT1 inhibition: IC50
From the text: as §1
as §2, with “The soluble STAT3 fraction was loaded on a HisTrap™ column (GE Healthcare Bio-Sciences) and eluted with an imidazole gradient (50 mM Tris–HCl pH 7.4, 300 mM NaCl, 0.2 mM EDTA, 0.1% (w/v) NP-40, 5 mM β-mercaptoethanol, 10% (v/v) glycerol, and 10–300 mM imidazole). An SDS-PAGE stained with Coomassie Brilliant Blue (CBB) was performed to check the purity of the protein (see Figure S71). Subsequently, the protein was dialyzed (10 mM HEPES-NaOH pH 7.4, 50 mM NaCl, 10 mM β-mercaptoethanol, 0.1 mM EGTA, 0.02% (w/v) NP-40, 0.2 mM phenylmethylsulphonyl fluoride (PMSF), and 10% (v/v) glycerol).” left out

[3] = target: T3, truncated form of STAT3 (136-705) (UniProt P40763 136-705); experiment: AlphaScreen or HTRF; same procedure with STAT3 single-cysteine mutants; compound 1 (0.3-30 µM) premixed with L-Cys in PBS and AlphaScreen buffer, mixed with the STAT3 mutant solution before adding the FITC-peptide; conditions: both partners purified
T3 construct: STAT3, residues 136-705; also called STAT3 wild-type; source: plasmid construction and protein expression as previously described [52]; chromatographically purified (HisTrap column, imidazole gradient), dialyzed

[4] = 30 µM, n.a.: not active, read-out: STAT3 % Inhibition (30 µM)
[5] = Table 1, AlphaScreen-based assay at 30 µM, STAT3-SH2 domain, read-out: % Inhibition

T2 sequence (P40763 136-705): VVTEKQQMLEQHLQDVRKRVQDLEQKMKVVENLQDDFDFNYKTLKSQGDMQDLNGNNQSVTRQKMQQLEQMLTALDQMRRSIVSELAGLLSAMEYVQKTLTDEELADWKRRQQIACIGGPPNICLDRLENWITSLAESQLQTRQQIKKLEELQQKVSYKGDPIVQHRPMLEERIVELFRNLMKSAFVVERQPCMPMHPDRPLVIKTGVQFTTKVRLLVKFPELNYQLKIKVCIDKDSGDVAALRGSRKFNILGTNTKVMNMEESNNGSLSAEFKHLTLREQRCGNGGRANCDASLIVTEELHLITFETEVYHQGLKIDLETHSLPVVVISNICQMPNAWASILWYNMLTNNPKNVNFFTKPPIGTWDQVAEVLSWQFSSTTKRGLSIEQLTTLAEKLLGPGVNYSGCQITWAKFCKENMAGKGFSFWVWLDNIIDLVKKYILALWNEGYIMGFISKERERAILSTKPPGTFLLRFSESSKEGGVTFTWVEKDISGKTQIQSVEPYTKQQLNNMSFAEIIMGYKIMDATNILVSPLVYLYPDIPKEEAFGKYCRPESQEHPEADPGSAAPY
T3 sequence (P40763 136-705): as above

Row | inhibition at 30 µM [1, 4] [%] | IC50 [1] [µM] | melting point [°C] | Molecule | further results
1 | 16.4 ± 0.8 | > 30 | – | O=S1(=O)Nc2ccccc2N1 [Compound 1a, 1H,3H-2,1,3-Benzothiadiazole-2,2-dioxide] | –
2 | 14.5 ± 0.6 | > 30 | 157 | Cc1ccc2c(c1)NS(=O)(=O)N2 [Compound 1b, 5-Methyl-1H,3H-2,1,3-benzothiadiazole-2,2-dioxide] | –
3 | 8.2 ± 1.6 | > 30 | 143 | O=S1(=O)Nc2ccc(C(F)(F)F)cc2N1 [Compound 1c, 5-(Trifluoromethyl)-1H,3H-2,1,3-benzothiadiazole-2,2-dioxide] | –
4 | 56.9 ± 3.6 | 25.1 | – | O=[N+]([O-])c1ccc2c(c1)NS(=O)(=O)N2 [Compound 1d, 5-Nitro-1H,3H-2,1,3-benzothiadiazole-2,2-dioxide] | IC50 [2]: 15.9 µM
5 | 28.2 ± 1.4 | > 30 | – | O=S1(=O)Nc2ccc(Cl)cc2N1 [Compound 1e, 5-Chloro-1H,3H-2,1,3-benzothiadiazole-2,2-dioxide] | –
6 | 18.9 ± 2.3 | > 30 | – | CC(=O)Nc1ccc2c(c1)NS(=O)(=O)N2 [Compound 1f, N-(2,2-Dioxo-1H,3H-2,1,3-benzothiadiazol-5-yl)acetamide] | –
7 | 11 ± 2.1 | > 30 | – | CC(C)CCNC(=O)CCc1ccc2c(c1)NS(=O)(=O)N2 [Compound 1g, 3-(2,2-Dioxo-1H,3H-2,1,3-benzothiadiazol-5-yl)-N-(3-methylbutyl)propanamide] | –
8 | – | – | 192 to 197 | O=C(CCc1ccc2c(c1)NS(=O)(=O)N2)Nc1ccccc1 [Compound 1h, 3-(2,2-Dioxo-1H,3H-2,1,3-benzothiadiazol-5-yl)-N-phenylpropanamide] | –
9 | 6.1 ± 0.9 | > 30 | 180 to 185 | O=S1(=O)Nc2ccc(-c3ccccc3)cc2N1 [Compound 1i, 5-Phenyl-1H,3H-2,1,3-benzothiadiazole-2,2-dioxide] | –
10 | 25.6 ± 1.2 | > 30 | 185 | Cc1cc2c(cc1Br)NS(=O)(=O)N2 [Compound 2a, 5-Bromo-6-methyl-1H,3H-2,1,3-benzothiadiazole-2,2-dioxide] | –
11 | 8.9 ± 1.1 | > 30 | – | Cc1ccc2c(c1)N(C)S(=O)(=O)N2C [Compound 2b, 1,3,5-Trimethyl-2,1,3-benzothiadiazole-2,2-dioxide] | –
12 | – | – | 134 | O=S1(=O)N(Cc2ccccc2)c2ccccc2N1Cc1ccccc1 [Compound 3, 1,3-Dibenzyl-2,1,3-benzothiadiazole-2,2-dioxide] | –
13 | 17.3 ± 1.3 | > 30 | 172 | O=C(CN1c2ccccc2NS1(=O)=O)NCCc1ccccc1 [Compound 4, 2-(2,2-Dioxo-3H-2,1,3-benzothiadiazol-1-yl)-N-(2-phenylethyl)acetamide] | –
14 | 3.5 ± 5.6 | > 30 | – | Oc1nc2ccccc2[nH]1 [Compound 5, 2,3-Dihydro-1H-1,3-benzodiazol-2-one] | –
15 | 11.5 ± 0.8 | > 30 | – | O=S1(=O)Cc2ccccc2C1 [Compound 6] | –
16 | – | – | – | NC1=NS(=O)(=O)Nc2nonc21 [III] | inhibition at 30 µM [1, 5]: 85.4%
17 | – | – | – | CCN1C(Cl)=NS(=O)(=O)c2ccccc21 [II] | inhibition at 30 µM [1, 5]: 43.4%
18 | – | – | – | CN1C(Cl)=NS(=O)(=O)c2ccccc21 [I] | inhibition at 30 µM [1, 5]: 79%
19 | – | – | – | G[pY]LPQTV (not fully specified (N-terminus), also called pTyr peptide probe for STAT3; phosphotyrosine peptide) [5-carboxyfluorescein (FITC)-GpYLPQTV] | binding result [3]: binds
